The record followed here is PubChem BioAssay AID2060347 (Molecular Pharmacology Branch, DTP, NCI, 2025).

The structures appear in SMILES notation. “And” between values parts separate entries of the source, which are not always exact repeats. Equal entries are not always repeated. The source made the active and inactive calls. How the source made its calls: active means viability on the fitted dose curve at most 10% of control; inactive means the rest.

The viability, T/C is the result in the treated group divided by that in the control group, in per cent. One may read the IC50 as the midpoint of a concentration-inhibition curve.

In this experiment the test system is 817829-284-R-J1-PDC spheroids with HUVEC/MSC, viability. Put plainly: Anticancer human tumor 817829-284-R-J1-PDC patient-derived colon adenocarcinoma cell line growth inhibition [TAK]. As to conditions: for viability, T/C: stronger effect = lower value. From the text: Combinatorial screen of targeted agents with TAK-243 and ipatasertib in multi-cell type tumor spheroids
A high-throughput screen of multi-cell type tumor spheroids was designed to identify active combinations of targeted small molecules and TAK-243 or ipatasertib. Complex spheroids include a stromal component modeled by human endothelial cells (HUVEC) and fibroblasts modeled by human mesenchymal stem cells (MSCs). The concentration ranges selected for each drug and investigational agent were based upon clinically achievable concentrations if the clinical Cmax of the agent was known.
Compounds. The drugs and investigational agents: TAK-243 (785004), ipatasertib (767898), everolimus (733504), selumetinib (741078), bortezomib (756655), trametinib (758246), ixazomib (758254), vemurafenib (761431), dabrafenib (764134), sapanisertib (764658), alpelisib (765974), and copanlisib (816437), were obtained from the National Cancer Institute (NCI) Developmental Therapeutics Program Chemical Repository. The FDA-approved anticancer drug set is available from the NCI Developmental Therapeutics Program. […] The stock solutions were prepared in dimethyl sulfoxide (DMSO, Sigma-Aldrich, St. Louis, MO, cat. D2650) at 800-fold the tested concentration and stored at -70 degrees C prior to their use. All drugs and investigational agents were tested over a range starting from a high concentration at or near the clinical Cmax and decreasing in half-log increments. If the clinical Cmax for an agent had not been determined, the highest concentration tested was 10 microM.
NCI60 Cell Culture. NCI60 cell lines were obtained from the NCI Developmental Therapeutics Program Tumor Repository. For each lot of cells, the Repository performed Applied Biosystems AmpFLSTR Identifiler testing with PCR amplification to confirm consistency with the published Identifier STR profile for each cell line. Cells were kept in continuous culture for no more than 20 passages. The optimal seeding densities for each of the cell lines at each time point assessed were determined prior to performing the concentration response studies. Briefly, the NCI60 human tumor lines were grown as monolayers in RPMI 1640 medium supplemented with 10% FBS and 2 mmol/L L-glutamine.
An additional 2 lines were from the NCI60 cell line panel including melanomas, MALME-3M and SK-MEL-2. Pooled donor human umbilical vein endothelial cells (HUVEC, Lonza, cat. CC-2519) and human mesenchymal stem cells (hMSC, Lonza, cat. PT-2501) were purchased from Lonza (Walkersville, MD).
PDMR cell lines were grown in complete medium (DC medium): Dulbecco's modified Eagle's medium (DMEM)/F12 supplemented with 5% fetal bovine serum (FBS), 2 mM L-glutamine, 100 U/mL penicillin and 100 µg/ml streptomycin, 0.4 µg/ml hydrocortisone, 10 ng/ml epidermal growth factor (EGF) recombinant human protein, 24 µg/mL adenine, and 0.1 mg/mL primocin. During culture from frozen stock vials, PDMR cells were cultured in the same medium containing 10 µM Y-27632 (see Table 3). The PDCs were cultured in complete DMEM/F12 media without 10 microM Y-27632 dihydrochloride for at least two passages prior to the screen. The pooled donor HUVEC and hMSC were cultured in endothelial cell growth medium 2 (PromoCell, Heidelberg, Germany, cat. C-22011) and mesenchymal stem cell growth medium 2 (PromoCell, cat. C-28009), respectively. For all experiments, HUVEC and hMSC were used at passages </=5.
For the pre-screen, cell seeding densities were determined from a titration spanning the range from 5,000 to 313 cells per well. The mct-spheroids including 60% malignant cells, 25% HUVEC and 15% MSC dispensed as a mixture into U-bottom Ultra-Low Attachment 384-well plates (Corning, NY)
High-throughput Drug Combination Screening.
Prior to their inoculation into 384-well plates, malignant cells, HUVEC, and hMSC were removed from T flasks using TrypLE express (Thermo Fisher Scientific, cat. 12605036) and harvested by centrifugation for 5 min at 233 x g. […]

Turning to `CC(=O)Nc1cccc(-n2c(=O)n(C3CC3)c(=O)c3c(Nc4ccc(I)cc4F)n(C)c(=O)c(C)c32)c1`, the viability, T/C (compound 94.9 pM) is 104% and 103%; the viability, T/C (compound 0.0003 µM) is 93% and 94.2%; the viability, T/C (compound 0.000949 µM) was 85.1% and 82.9%; the viability, T/C (compound 0.003 µM) was 65.9% and 53.9%; the viability, T/C (compound 0.00949 µM) was 25.9% and 33.9%; the viability, T/C (compound 0.03 µM) was 10.8% and 11%. In addition, the IC50 (curve of compound) is 0.00458 µM and 0.00415 µM.

Regarding `CC(C)(C)c1nc(-c2cccc(NS(=O)(=O)c3c(F)cccc3F)c2F)c(-c2ccnc(N)n2)s1`, the viability, T/C is 98.1% and 94% (compound 0.0316 µM); 87.5% and 82.2% (compound 0.1 µM); 54.2% and 63.3% (compound 0.316 µM); 31% (compound 1 µM); 64.7% and 54.7% (compound 3.16 µM); 46.4% and 50.4% (compound 10 µM). Also, the outcome (compound 1 µM) was inactive.

For the compound `CC(C)CC(NC(=O)C(Cc1ccccc1)NC(=O)c1cnccn1)B(O)O` (centres undefined), the viability, T/C is 102% and 95.1% (compound 31.6 pM); 99.1% and 89.3% (compound 0.0001 µM); 98.6% and 94.7% (compound 0.000316 µM); 89.5% and 98.6% (compound 0.001 µM); 103% and 99.9% (compound 0.00316 µM). Further, the half-maximal inhibitory concentration (IC50) (curve of compound) is 0.00561 µM and > 0.01 µM.

Turning to `CC(C)CC(NC(=O)CNC(=O)c1cc(Cl)ccc1Cl)B1OC(=O)CC(CC(=O)O)(C(=O)O)O1` (centres undefined), the viability, T/C by setting is: (compound 0.000316 µM) 106% and 97.9%; (compound 0.001 µM) 107% and 100%; (compound 0.00316 µM) 111% and 99.2%; (compound 0.01 µM) 103% and 105%; (compound 0.0316 µM) 3.63% and 22.3%; (compound 0.1 µM) 0.47% and 0.3%. Moreover, the half-maximal inhibitory concentration (IC50) (curve of compound) is 0.0185 µM and 0.021 µM.

In the case of `CC(C)NCC(C(=O)N1CCN(c2ncnc3c2C(C)CC3O)CC1)c1ccc(Cl)cc1` (centres undefined), the viability, T/C (compound 3 µM) is 15.9% [middle of 10 runs]; the viability, T/C (compound 9.49 µM) is 11.2% [middle of 10 runs]; the viability, T/C (compound 30 µM) is 6.54% [middle of 10 runs]. The IC50 reads like this: (compound alone, run of 02/28/2020) 1.55 µM [middle of 6 runs]; (compound alone, run of 03/19/2020) 665 nM [middle of 4 runs].

Turning to `CC(C)n1nc(-c2ccc3oc(N)nc3c2)c2c(N)ncnc21`, the viability, T/C runs as follows: (compound 0.000316 µM) 101% and 104%; (compound 0.001 µM) 102% and 99%; (compound 0.00316 µM) 101% and 102%; (compound 0.01 µM) 93% and 92.9%; (compound 0.0316 µM) 56.8% and 61.2%; (compound 0.1 µM) 21.3% and 33.1%. Besides, the half-inhibitory concentration (IC50) (curve of compound) was 0.0394 µM and 0.05 µM.

With `CCCS(=O)(=O)Nc1ccc(F)c(C(=O)c2c[nH]c3ncc(-c4ccc(Cl)cc4)cc23)c1F`, the viability, T/C is 89.1% and 93% (compound 0.316 µM); 81.3% and 89.1% (compound 1 µM); 62.7% and 34.4% (compound 3.16 µM); 12.4% and 10.9% (compound 10 µM); 56.8% and 26.3% (compound 31.6 µM); 59.9% and 43.6% (compound 100 µM). The 50% inhibitory concentration (IC50) (curve of compound) was 6.65 µM and 2.27 µM.

On to `COC1CC2CCC(C)C(O)(O2)C(=O)C(=O)N2CCCCC2C(=O)OC(C(C)CC2CCC(OCCO)C(OC)C2)CC(=O)C(C)C=C(C)C(O)C(OC)C(=O)C(C)CC(C)C=CC=CC=C1C` (centres undefined), for which the viability, T/C is, setting by setting: (compound 0.000316 µM) 104% and 110%; (compound 0.001 µM) 99.8% and 102%; (compound 0.00316 µM) 94% and 99.6%; (compound 0.01 µM) 81% and 86.2%; (compound 0.0316 µM) 79.2% and 82.3%; (compound 0.1 µM) 63.9% and 75%. Besides, for the setting “curve of compound”, the IC50 was > 0.1 µM.

For `COc1c(OCCCN2CCOCC2)ccc2c3n(c(=NC(=O)c4cnc(N)nc4)nc12)CCN3`, the viability, T/C runs as follows: (compound 0.00316 µM) 104% and 105%; (compound 0.01 µM) 90.7% and 96.1%; (compound 0.0316 µM) 63.8% and 44.4%; (compound 0.1 µM) 18.7% and 13.9%; (compound 0.316 µM) 3.92% and 2.94%; (compound 1 µM) 2.85% and 3.44%. The 50% inhibitory concentration (IC50) (curve of compound) was 0.044 µM and 0.0287 µM.

Regarding `Cc1nc(NC(=O)N2CCCC2C(N)=O)sc1-c1ccnc(C(C)(C)C(F)(F)F)c1` (centres undefined), the viability, T/C is 96.8% and 102% (compound 0.0316 µM); 98.7% and 96.4% (compound 0.1 µM); 94.8% and 94.7% (compound 0.316 µM); 88.1% and 93% (compound 1 µM); 79.6% and 80% (compound 3.16 µM); 48.1% and 49.1% (compound 10 µM). Moreover, the half-maximal inhibitory concentration (IC50) (curve of compound) is 9.42 µM and 9.84 µM.

As for `Cn1cnc2c(F)c(Nc3ccc(Br)cc3Cl)c(C(=O)NOCCO)cc21`, the viability, T/C by setting is: (compound 0.00949 µM) 89.3% and 94.4%; (compound 0.03 µM) 86.4% and 83.3%; (compound 0.0949 µM) 79% and 79.5%; (compound 0.3 µM) 72% and 66.6%; (compound 0.949 µM) 55.7% and 53.5%; (compound 3 µM) 25.6% and 20.5%. For the setting “curve of compound”, the concentration for half-maximal inhibition (IC50) is 1.15 µM and 0.953 µM.
